Experiments:
Conditions in all cases: 72 h
BT-474 = system: BT-474
Procedure, shortened: (§1)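 EC50 was fitted from dose-response curves and censored at the highest concentration tested. To build those curves, breast cancer cell lines (20 µl suspension) were seeded into 384-well plates containing compound at 5 concentrations in 10-fold steps over a compound-specific 10,000-fold range and incubated for 72 h. Readouts were CellTox Green fluorescence (485/520 nm) for cell death and then CellTiter-Glo luminescence for viability, with each plate normalised to 0.1 % DMSO and a positive kill control.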

BT-549 = system: BT-549
Procedure, shortened: as §1

CAL-120 = system: CAL-120
Procedure, shortened: as §1

CAL-51 = system: CAL-51
Procedure, shortened: as §1

CAL-85-1 = system: CAL-85-1
Procedure, shortened: as §1

HCC1937 = system: HCC1937
Procedure, shortened: as §1

Hs578T = system: Hs578T
Procedure, shortened: as §1

MCF-10A = system: MCF-10A
Procedure, shortened: as §1

MDA-MB-231 = system: MDA-MB-231
Procedure, shortened: as §1

MDA-MB-436 = system: MDA-MB-436
Procedure, shortened: as §1

MDA-MB-453 = system: MDA-MB-453
Procedure, shortened: as §1

MDA-MB-468 = system: MDA-MB-468
Procedure, shortened: as §1

SK-BR-3 = system: SK-BR-3
Procedure, shortened: as §1

EC50, CellTiter-Glo (BT-474): 9.85 nM | EC50, CellTiter-Glo (BT-549): 9.82 nM | EC50, CellTiter-Glo (HCC1937): 13 nM | EC50, CellTiter-Glo (MDA-MB-231): 11.8 nM | EC50, CellTiter-Glo (MDA-MB-436): 3.68 nM | EC50, CellTiter-Glo (MDA-MB-453): 12 nM | EC50, CellTiter-Glo (MDA-MB-468): 23.1 nM | EC50, CellTiter-Glo (SK-BR-3): 14 nM
Compound: Cn1c(=O)n(-c2ccc(C(C)(C)C#N)cc2)c2c3cc(-c4cnc5ccccc5c4)ccc3ncc21 [Dactolisib]
EC50, CellTiter-Glo (CAL-120): 9.42 nM | EC50, CellTiter-Glo (CAL-51): 14.3 nM | EC50, CellTiter-Glo (CAL-85-1): 8.05 nM | EC50, CellTiter-Glo (Hs578T): 13.6 nM | EC50, CellTiter-Glo (MCF-10A): 28.5 nM

Source: the supplement of paper PMC4862054
